Reference: patent US6906065B2, “4-Amino-5-cyano-2-anilino-pyrimidine derivatives and their use as inhibitors of cell-cycle kinases” (AstraZeneca AB, priority 2000, dated 2005)

Biological target: T1, CDK2/Cyclin E (Homo sapiens, UniProt P24941)
T1 construct: The open reading frames of CDK2 and Cyclin E were isolated by reverse transcriptase-PCR; made in house; host or cells: Sf21 (Spodoptera frugiperda) insect cells, baculovirus co-infection, vector pVL1393
Assay: in vitro kinase assay (Scintillation Proximity Assay), incorporation of [γ-33-P]-ATP into GST-Rb
Format: biochemical
Conditions: CDK2/Cyclin E partially-purified enzyme, GST-Rb substrate, 0.2 μM ATP, 60 minutes at room temperature; read-out: CDK2 inhibitory activity IC50
Method: The compounds were tested in an in vitro kinase assay in 96 well format using Scintillation Proximity Assay (SPA—obtained from Amersham) for measuring incorporation of [γ-33-P]-Adenosine Triphosphate into a test substrate (GST-Retinoblastoma protein; GST-Rb). In each well was placed the compound to be tested (diluted in DMSO and water to correct concentrations) and in control wells either roscovitine as an inhibitor control or DMSO as a positive control. […]
The plates were sealed with Topseal-S plate sealers, left for two hours then spun at 2500 rpm, 1124×g., for 5 minutes. The plates were read on a Topcount for 30 seconds per well. […]
E.coli paste was resuspended in 10 ml/g of NETN buffer (50 mM Tris pH 7.5, 120 mM NaCl, 1 mM EDTA, 0.5% v/v NP-40, 1 mM PMSF, 1 ug/ml leupeptin, 1 ug/ml aprotinin and 1 ug/ml pepstatin) and sonicated for 2×45 seconds per 100 ml homogenate. […] The final product was analysed by Sodium Dodeca Sulfate (SDS) PAGE (Polyacrylamide gel) using 8-16% Tris-Glycine gels (Novex, San Diego, USA).
The open reading frames of CDK2 and Cyclin E were isolated by reverse transcriptase-PCR using HeLa cell and activated T cell mRNA as a template and cloned into the insect expression vector pVL1393 (obtained from Invitrogen 1995 catalogue number: V1392-20). […]

IC50 [nM] | SMILES
17 | CCCNS(=O)(=O)c1ccc(Nc2ncc(C#N)c(N)n2)cc1 [Example 23, 4-Amino-5-cyano-2-[4-(N-propylsulphamoyl)anilino]pyrimidine]
33 | N#Cc1cnc(Nc2ccc(S(=O)(=O)NC3CCC3)cc2)nc1N [Example 21, 4-Amino-5-cyano-2-{4-[N-(cyclobutyl)sulphamoyl]anilino}pyrimidine]
